Measured values as given in the supplement of paper PMC10307832.

Assays:
Test in all cases: relative viability (nuclei count vs DMSO), 5 days (fraction); higher = more cells survive
NCI-H520 = tested on: NCI-H520
How it was run: (§1)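 Relative viability equals treated-well nuclei counts divided by vehicle-well nuclei counts. Counts came from 4× images of lung cancer cell lines grown in 1536-well plates for 5 days after pin-tool dosing on the day after seeding. Dosing used one drug alone or a fixed anchor-drug dose plus five library-drug doses (not always all listed) in √10 steps, and values are medians of duplicate plates.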

H3255 = tested on: H3255
How it was run: as §1

ChaGo-K-1 = tested on: ChaGo-K-1
How it was run: as §1

NCI-H661 = tested on: NCI-H661
How it was run: as §1

NCI-H650 = tested on: NCI-H650
How it was run: as §1

NCI-H1915 = tested on: NCI-H1915
How it was run: as §1

HCC-827 = tested on: HCC-827
How it was run: as §1

NCI-H2405 = tested on: NCI-H2405
How it was run: as §1

HCC-78 = tested on: HCC-78
How it was run: as §1

COR-L 105 = tested on: COR-L 105
How it was run: as §1

LCLC-97TM1 = tested on: LCLC-97TM1
How it was run: as §1

NCI-H2126 = tested on: NCI-H2126
How it was run: as §1

PC-14 = tested on: PC-14
How it was run: as §1

NCI-H1666 = tested on: NCI-H1666
How it was run: as §1

LC-2-ad = tested on: LC-2-ad
How it was run: as §1

NCI-H647 = tested on: NCI-H647
How it was run: as §1

NCI-H2347 = tested on: NCI-H2347
How it was run: as §1

NCI-H2087 = tested on: NCI-H2087
How it was run: as §1

201T = tested on: 201T
How it was run: as §1

EPLC-272H = tested on: EPLC-272H
How it was run: as §1

RERF-LC-KJ = tested on: RERF-LC-KJ
How it was run: as §1

NCI-H23 = tested on: NCI-H23
How it was run: as §1

With `Cc1sc2c(c1C)C(c1ccc(Cl)cc1)=N[C@@H](CC(=O)OC(C)(C)C)c1nnc(C)n1-2` [JQ1] + CC(=O)c1c(C)c2cnc(Nc3ccc(N4CCNCC4)cn3)nc2n(C2CCCC2)c1=O [Palbociclib] (partner 0.5 µM) the relative viability (NCI-H520; first compound 0.04 µM) was 0.197, the relative viability (NCI-H520; first compound 0.1265 µM) was 0.196 and the relative viability (NCI-H520; first compound 0.4 µM) was 0.184. The relative viability (NCI-H520; first compound 1.265 µM) was 0.154, the relative viability (NCI-H520; first compound 4 µM) was 0.143 and the relative viability (H3255; first compound 0.04 µM) was 0.303. The relative viability (H3255; first compound 0.1265 µM) was 0.321, the relative viability (H3255; first compound 0.4 µM) was 0.283 and the relative viability (H3255; first compound 1.265 µM) was 0.247. For the same compound, the relative viability (H3255; first compound 4 µM) was 0.228, the relative viability (ChaGo-K-1; first compound 0.04 µM) was 0.942 and the relative viability (ChaGo-K-1; first compound 0.1265 µM) was 0.909. For the same compound, the relative viability (ChaGo-K-1; first compound 0.4 µM) was 0.952, the relative viability (ChaGo-K-1; first compound 1.265 µM) was 0.674 and the relative viability (ChaGo-K-1; first compound 4 µM) was 0.525. It also gave a relative viability (NCI-H661; first compound 0.04 µM) of 0.406, a relative viability (NCI-H661; first compound 0.1265 µM) of 0.369 and a relative viability (NCI-H661; first compound 0.4 µM) of 0.424. The relative viability (NCI-H661; first compound 1.265 µM) was 0.406, the relative viability (NCI-H661; first compound 4 µM) was 0.397 and the relative viability (NCI-H650; first compound 0.04 µM) was 0.328. It also gave a relative viability (NCI-H650; first compound 0.1265 µM) of 0.259, a relative viability (NCI-H650; first compound 0.4 µM) of 0.228 and a relative viability (NCI-H650; first compound 1.265 µM) of 0.176. For the same compound, the relative viability (NCI-H650; first compound 4 µM) was 0.164, the relative viability (NCI-H1915; first compound 0.04 µM) was 0.542 and the relative viability (NCI-H1915; first compound 0.4 µM) was 0.37. It also gave a relative viability (NCI-H1915; first compound 1.265 µM) of 0.295, a relative viability (NCI-H1915; first compound 4 µM) of 0.179 and a relative viability (HCC-827; first compound 0.04 µM) of 0.528. For the same compound, the relative viability (HCC-827; first compound 0.1265 µM) was 0.388, the relative viability (HCC-827; first compound 1.265 µM) was 0.279 and the relative viability (HCC-827; first compound 4 µM) was 0.252. The relative viability (NCI-H2405; first compound 0.04 µM) was 0.571, the relative viability (NCI-H2405; first compound 0.4 µM) was 0.522 and the relative viability (NCI-H2405; first compound 1.265 µM) was 0.471. For the same compound, the relative viability (NCI-H2405; first compound 4 µM) was 0.311, the relative viability (HCC-78; first compound 0.04 µM) was 0.489 and the relative viability (HCC-78; first compound 0.1265 µM) was 0.523. It also gave a relative viability (HCC-78; first compound 0.4 µM) of 0.511, a relative viability (HCC-78; first compound 1.265 µM) of 0.469 and a relative viability (HCC-78; first compound 4 µM) of 0.513. For the same compound, the relative viability (COR-L 105; first compound 0.04 µM) was 0.384, the relative viability (COR-L 105; first compound 0.1265 µM) was 0.429 and the relative viability (COR-L 105; first compound 0.4 µM) was 0.358. For the same compound, the relative viability (COR-L 105; first compound 1.265 µM) was 0.311, the relative viability (COR-L 105; first compound 4 µM) was 0.34 and the relative viability (LCLC-97TM1; first compound 0.04 µM) was 0.255. It also gave a relative viability (LCLC-97TM1; first compound 0.1265 µM) of 0.159, a relative viability (LCLC-97TM1; first compound 0.4 µM) of 0.15 and a relative viability (LCLC-97TM1; first compound 1.265 µM) of 0.0928. The relative viability (LCLC-97TM1; first compound 4 µM) was 0.0931, the relative viability (NCI-H2126; first compound 0.04 µM) was 0.345 and the relative viability (NCI-H2126; first compound 0.1265 µM) was 0.401. For the same compound, the relative viability (NCI-H2126; first compound 0.4 µM) was 0.368, the relative viability (NCI-H2126; first compound 1.265 µM) was 0.348 and the relative viability (NCI-H2126; first compound 4 µM) was 0.37. For the same compound, the relative viability (PC-14; first compound 0.04 µM) was 0.486, the relative viability (PC-14; first compound 0.1265 µM) was 0.238 and the relative viability (PC-14; first compound 0.4 µM) was 0.221. It also gave a relative viability (PC-14; first compound 1.265 µM) of 0.116, a relative viability (PC-14; first compound 4 µM) of 0.104 and a relative viability (NCI-H1666; first compound 0.04 µM) of 0.646. The relative viability (NCI-H1666; first compound 0.1265 µM) was 0.576, the relative viability (NCI-H1666; first compound 0.4 µM) was 0.591 and the relative viability (NCI-H1666; first compound 1.265 µM) was 0.647. It also gave a relative viability (NCI-H1666; first compound 4 µM) of 0.568, a relative viability (LC-2-ad; first compound 0.04 µM) of 0.514 and a relative viability (LC-2-ad; first compound 0.1265 µM) of 0.433. The relative viability (LC-2-ad; first compound 0.4 µM) was 0.342, the relative viability (LC-2-ad; first compound 1.265 µM) was 0.279 and the relative viability (LC-2-ad; first compound 4 µM) was 0.281. The relative viability (NCI-H647; first compound 0.04 µM) was 0.372, the relative viability (NCI-H647; first compound 0.1265 µM) was 0.231 and the relative viability (NCI-H647; first compound 0.4 µM) was 0.13. For the same compound, the relative viability (NCI-H647; first compound 1.265 µM) was 0.113, the relative viability (NCI-H647; first compound 4 µM) was 0.0792 and the relative viability (NCI-H2347; first compound 0.04 µM) was 0.446. For the same compound, the relative viability (NCI-H2347; first compound 0.1265 µM) was 0.393, the relative viability (NCI-H2347; first compound 0.4 µM) was 0.385 and the relative viability (NCI-H2347; first compound 1.265 µM) was 0.327. The relative viability (NCI-H2347; first compound 4 µM) was 0.32, the relative viability (NCI-H2087; first compound 0.04 µM) was 0.234 and the relative viability (NCI-H2087; first compound 0.1265 µM) was 0.214. For the same compound, the relative viability (NCI-H2087; first compound 0.4 µM) was 0.153, the relative viability (NCI-H2087; first compound 1.265 µM) was 0.157 and the relative viability (NCI-H2087; first compound 4 µM) was 0.163. It also gave a relative viability (201T; first compound 0.04 µM) of 0.334, a relative viability (201T; first compound 0.4 µM) of 0.298 and a relative viability (201T; first compound 1.265 µM) of 0.313. The relative viability (201T; first compound 4 µM) was 0.268, the relative viability (EPLC-272H; first compound 0.04 µM) was 0.315 and the relative viability (EPLC-272H; first compound 0.1265 µM) was 0.252. The relative viability (EPLC-272H; first compound 0.4 µM) was 0.308, the relative viability (EPLC-272H; first compound 1.265 µM) was 0.26 and the relative viability (EPLC-272H; first compound 4 µM) was 0.224. It also gave a relative viability (RERF-LC-KJ; first compound 0.04 µM) of 1.13, a relative viability (RERF-LC-KJ; first compound 0.1265 µM) of 0.868 and a relative viability (RERF-LC-KJ; first compound 0.4 µM) of 0.887. For the same compound, the relative viability (RERF-LC-KJ; first compound 1.265 µM) was 0.254, the relative viability (RERF-LC-KJ; first compound 4 µM) was 0.246 and the relative viability (NCI-H23; first compound 0.04 µM) was 0.597. For the same compound, the relative viability (NCI-H23; first compound 0.1265 µM) was 0.48, the relative viability (NCI-H23; first compound 0.4 µM) was 0.275 and the relative viability (NCI-H23; first compound 1.265 µM) was 0.26. For the same compound, the relative viability (NCI-H23; first compound 4 µM) was 0.215.
